The record followed here is US11365192B2, “Pyridine compound substituted with azole” (TAISHO PHARMACEUTICAL CO., LTD., priority 2017, dated 2022).

The IC50 is the concentration that inhibits the measured activity by half. Read a low IC50 as greater potency.

The target in assay [1] is human CYP4F2 (Homo sapiens (Human), UniProt P78329). Briefly: Inhibition test against 20-HETE producing enzyme CYP4F2 (luciferine derivative, luminescence). Format: biochemical. An outline of the steps:
(§1)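 E. coli membranes (100 μg/mL protein) expressing human enzyme, room temperature 60 min, luciferin-derivative luminescence; IC50 from % inhibition. CYP4F2: 50 mM KPO4 pH 7.4, 2.5 μM substrate, 1 mM NADPH. CYP4A11: 100 mM Tris-HCl pH 7.5, 60 μM substrate, NADP+/glucose 6-phosphate/G6PDH regenerating system, 3.3 mM MgCl2.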

Assay [2] concerns the target human CYP4A11 (Homo sapiens (Human), UniProt Q02928). Put plainly: Inhibition test against 20-HETE producing enzyme CYP4A11 (luciferine derivative, luminescence). The assay is classed as biochemical. An outline of the steps:
as §1

Where [3] appears, read: E. coli membrane fraction expressing human CYP4F2, 2.5 μM luciferine derivative, room temperature 60 minutes.
Setting [4] is: E. coli membrane fraction expressing human CYP4A11, 60 μM luciferine derivative, room temperature 60 minutes.
The mark [5] stands for this setting: human CYP4F2, luciferine derivative, luminescence.
Where [6] appears, read: human CYP4A11, luciferine derivative, luminescence.

Where only a bound is given, the exact number is not on record here.

Chain of human CYP4A11 (Q02928 5-519): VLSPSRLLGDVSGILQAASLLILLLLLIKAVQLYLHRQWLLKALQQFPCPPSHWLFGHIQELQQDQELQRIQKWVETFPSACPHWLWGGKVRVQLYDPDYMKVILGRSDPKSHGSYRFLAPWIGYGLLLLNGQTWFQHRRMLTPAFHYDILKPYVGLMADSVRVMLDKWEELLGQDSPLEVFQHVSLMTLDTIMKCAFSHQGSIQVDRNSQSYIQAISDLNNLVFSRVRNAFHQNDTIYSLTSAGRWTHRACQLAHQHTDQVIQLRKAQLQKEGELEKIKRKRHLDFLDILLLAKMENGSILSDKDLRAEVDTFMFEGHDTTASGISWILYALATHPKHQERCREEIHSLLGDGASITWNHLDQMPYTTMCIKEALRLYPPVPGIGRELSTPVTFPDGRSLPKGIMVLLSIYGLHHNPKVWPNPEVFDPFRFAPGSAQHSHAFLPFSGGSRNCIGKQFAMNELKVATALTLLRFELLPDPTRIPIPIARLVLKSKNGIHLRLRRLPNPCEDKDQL
Chain of human CYP4F2 (P78329 5-520): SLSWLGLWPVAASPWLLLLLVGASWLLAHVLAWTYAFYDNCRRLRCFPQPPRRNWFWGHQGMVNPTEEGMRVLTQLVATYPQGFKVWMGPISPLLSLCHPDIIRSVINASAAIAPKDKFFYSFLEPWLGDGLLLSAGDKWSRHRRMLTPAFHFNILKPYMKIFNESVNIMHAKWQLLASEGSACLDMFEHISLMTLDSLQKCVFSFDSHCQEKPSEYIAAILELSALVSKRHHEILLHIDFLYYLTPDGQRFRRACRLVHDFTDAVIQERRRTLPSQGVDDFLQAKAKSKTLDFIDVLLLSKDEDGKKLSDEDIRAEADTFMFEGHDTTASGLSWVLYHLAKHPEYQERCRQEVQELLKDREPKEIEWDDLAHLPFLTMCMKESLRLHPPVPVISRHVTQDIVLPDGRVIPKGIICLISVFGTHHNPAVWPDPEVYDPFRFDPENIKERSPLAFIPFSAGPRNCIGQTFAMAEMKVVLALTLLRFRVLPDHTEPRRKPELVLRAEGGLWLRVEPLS

In the case of `NC(=O)c1cccc(COc2ccc(-c3ccn[nH]3)nc2)c1` [Example 53-1, 3-[[6-(1H-Pyrazol-5-yl)-3-pyridinyl]oxymethyl]benzamide], the IC50 in assay [1] (setting [3]) came out at 190 nM; in assay [2] (setting [4]), 110 nM.
Take `O=C(O)c1ccc(-c2cccc(COc3ccc(-c4ccn[nH]4)nc3)c2)cc1` [Example 31-2]: the figures for the IC50 in assay [1] (setting [3]) and in assay [2] (setting [4]) were 100 nM and 9.8 nM, respectively.
The like results for `O=C(O)Cc1cccc(COc2ccc(-c3ccn[nH]3)nc2)n1` [Example 8-16] were, in that order, 680 nM and 750 nM.
For the compound `O=C(O)C12CC(C(=O)N3CCC[C@@H](COc4ccc(-c5ccn[nH]5)nc4)C3)(C1)C2` [Example 46-3], the IC50 in assay [1] (setting [3]) is more than 50000 nM; in assay [2] (setting [4]), 1500 nM.
`CC(C)(CCN1CCc2ccc(COc3ccc(-c4ccn[nH]4)nc3)cc2C1=O)C(=O)O` [Example 8-6]: the IC50 in assay [1] (setting [3]) worked out at 53 nM; in assay [2] (setting [4]), 2500 nM.
On to `O=C(O)c1cnn(-c2cccc(COc3ccc(-c4ccn[nH]4)nc3)c2)c1` [Example 34-3, 1-[3-[[6-(1H-Pyrazol-5-yl)-3-pyridinyl]oxymethyl]phenyl]-4-pyrazolecarboxylic Acid], for which the IC50 is 390 nM in assay [1] (setting [3]) and 26 nM in assay [2] (setting [4]).
For `O=C(O)c1cnc(-c2cccc(COc3ccc(-c4ccn[nH]4)nc3)c2)nc1` [Example 22-5, 2-[3-[[6-(1H-Pyrazol-5-yl)-3-pyridinyl]oxymethyl]phenyl]-5-pyrimidinecarboxylic Acid], in that order: 3100 nM and 120 nM.
The like results for `O=C(O)CCC(=O)N1CCC[C@H](COc2ccc(-c3ccn[nH]3)nc2)C1` [Example 1-23] were, in that order, 20000 nM and 320 nM.
Consider `O=C(O)C1CC1c1cc(F)cc(CCOc2ccc(-c3ccn[nH]3)nc2)c1` (centres unmarked) [Example 74-9], for which the IC50 is 19000 nM in assay [1] (setting [5]) and 47 nM in assay [2] (setting [6]).
For `O=C(O)c1ccc(CCCCOc2ccc(-c3ccn[nH]3)nc2)cc1` [Example 1-18], the IC50 in assay [1] (setting [3]) was determined as 330 nM; in assay [2] (setting [4]), 14 nM.
Consider `O=C(O)c1ccccc1-c1cccc(COc2ccc(-c3ccn[nH]3)nc2)c1` [Example 8-4], for which the values for the IC50 in assay [1] (setting [3]) and in assay [2] (setting [4]) were 4300 nM and 250 nM, respectively.
Consider `O=C(c1cccc(COc2ccc(-c3ccn[nH]3)nc2)c1)N1CCC(F)(C(=O)O)C1` (centres unmarked) [Example 45-37], for which the IC50 was determined as 720 nM in assay [1] (setting [5]) and 120 nM in assay [2] (setting [6]).
`CC(=O)N1CCC(CCCCCCCCOc2ccc(-c3ccn[nH]3)nc2)(C(=O)O)CC1` [Example 6-1, 1-Acetyl-4-[8-[[6-(1H-pyrazol-5-yl)-3-pyridinyl]oxy]octyl]-4-piperidinecarboxylic Acid]: the IC50 in assay [1] (setting [3]) was 7.9 nM; in assay [2] (setting [4]), 770 nM.
Take `O=C(NC12CC(C(=O)O)(C1)C2)c1cccc(COc2ccc(-c3ccn[nH]3)nc2)c1` [Example 45-23]: the IC50 in assay [1] (setting [5]) turned out to be 3900 nM; in assay [2] (setting [6]) it was 710 nM.
On to `O=C(O)C1CC1c1cccc(COc2ccc(-c3ccn[nH]3)nc2)c1F` (centres unmarked) [Example 70-3, 2-[2-Fluoro-3-[[6-(1H-pyrazol-5-yl)pyridin-3-yl]oxymethyl]phenyl]cyclopropane-1-carboxylic Acid], for which the IC50 in assay [1] (setting [5]) amounted to 280 nM; in assay [2] (setting [6]), 28 nM.
As for `O=C(NC1(C(=O)O)CCOCC1)c1cccc(COc2ccc(-c3ccn[nH]3)nc2)c1` [Example 45-13], the IC50 in assay [1] (setting [5]) was found to be 6800 nM; in assay [2] (setting [6]) it was 240 nM.
For the compound `O=C(O)CCCCc1ccccc1COc1ccc(-c2ccn[nH]2)nc1` [Example 1-12], the figures for the IC50 in assay [1] (setting [3]) and in assay [2] (setting [4]) were more than 50000 nM and 170 nM, respectively.
For `O=C(O)C12CCC(COc3ccc(-c4ccns4)nc3)(CC1)CC2` [Example 39-2], the IC50 in assay [1] (setting [3]) was 22000 nM; in assay [2] (setting [4]) it was 18 nM.
For `O=C(NCC1(C(=O)O)CC1)c1cccc(COc2ccc(-c3ccn[nH]3)nc2)c1` [Example 45-4], the results for the IC50 in assay [1] (setting [5]) and in assay [2] (setting [6]) were 6400 nM and 86 nM, respectively.
`O=C(O)CCCCCCCCOc1ccc(-c2ccn[nH]2)nc1` [Example 1-51]: the results for the IC50 in assay [1] (setting [3]) and in assay [2] (setting [4]) were 200 nM and 54 nM, respectively.
Consider `CC(C)(Oc1cccc(CCCOc2ccc(-c3ccn[nH]3)nc2)n1)C(=O)O` [Example 71-40], for which the IC50 in assay [1] (setting [5]) was 8700 nM; in assay [2] (setting [6]), 450 nM.
For the compound `O=C(O)CC[C@H]1CCC[C@@H](COc2ccc(-c3ccn[nH]3)nc2)C1` (racemic) [Example 2-6, cis-3-[3-[[6-(1H-Pyrazol-5-yl)-3-pyridinyl]oxymethyl]cyclohexyl]propanoic Acid (Racemate)], the IC50 in assay [1] (setting [3]) turned out to be 1300 nM; in assay [2] (setting [4]), 25 nM.
For `CC(=O)N1CC(O)(c2cccc(COc3ccc(-c4ccn[nH]4)nc3)c2)C1` [Example 52-2], the IC50 in assay [1] (setting [3]) came to 50 nM; in assay [2] (setting [4]) it was 520 nM.
In the case of `CN(C)C(=O)CCc1cccc(COc2ccc(-c3ccn[nH]3)nc2)c1` [Example 42-9], the values for the half-maximal inhibitory concentration (IC50) in assay [1] (setting [3]) and in assay [2] (setting [4]) were 76 nM and 67 nM, respectively.
For the compound `O=C(O)C1(Cc2ccc(CCOc3ccc(-c4ccn[nH]4)nc3)cc2)COC1` [Example 74-12, 3-[[4-[2-[6-(1H-Pyrazol-5-yl)pyridin-3-yl]oxyethyl]phenyl]methyl]oxetane-3-carboxylic Acid], the results for the IC50 in assay [1] (setting [5]) and in assay [2] (setting [6]) were 13000 nM and 510 nM, respectively.
`CC(O)(c1cccc(COc2ccc(-c3ccn[nH]3)nc2)c1)C(F)(F)F` (centres unmarked) [Example 27-2]: the IC50 worked out at 300 nM in assay [1] (setting [3]) and 15 nM in assay [2] (setting [4]).
With `CC(C)(Cc1ccc(COc2ccc(-c3ccn[nH]3)nc2)cc1)C(=O)O` [Example 71-25], the IC50 was determined as 4800 nM in assay [1] (setting [5]) and 300 nM in assay [2] (setting [6]).
For the compound `CC[C@H](OCCCCCCCOc1ccc(-c2ccn[nH]2)nc1)C(=O)O` [Example 71-2-2], the IC50 in assay [1] (setting [5]) was determined as 90 nM; in assay [2] (setting [6]) it was 87 nM.
As for `O=C(O)Cn1cc(CCCOc2ccc(-c3ccn[nH]3)nc2)nn1` [Example 35-1, 2-[4-[3-[[6-(1H-Pyrazol-5-yl)-3-pyridinyl]oxy]propyl]-1-triazolyl]acetic Acid], the figures for the IC50 in assay [1] (setting [3]) and in assay [2] (setting [4]) were 20000 nM and 3000 nM, respectively.
For `CC(C)(CCOc1ccc(-c2ccn[nH]2)nc1)CCC(=O)O` [Example 7-1, 4,4-Dimethyl-6-[[6-(1H-pyrazol-5-yl)-3-pyridinyl]oxy]hexanoic Acid], the IC50 was found to be 48000 nM in assay [1] (setting [3]) and 34 nM in assay [2] (setting [4]).
In the case of `CC(=O)N1CCC(CCCCCCCOc2ccc(-c3ccn[nH]3)nc2)(C(=O)O)CC1` [Example 3-8], the figures for the IC50 in assay [1] (setting [3]) and in assay [2] (setting [4]) were 250 nM and 1200 nM, respectively.
For `CS(=O)(=O)c1cc(COc2ccc(-c3ccn[nH]3)nc2)ccc1O` [Example 20-1, 2-Methylsulfonyl-4-[[6-(1H-pyrazol-5-yl)-3-pyridinyl]oxymethyl]phenol], in that order: 1100 nM and 28000 nM.
With `O=C(O)C1CCCC(c2cccc(COc3ccc(-c4ccn[nH]4)nc3)c2)C1` (centres unmarked) [Example 8-3], the results for the IC50 in assay [1] (setting [3]) and in assay [2] (setting [4]) were 860 nM and 28 nM, respectively.
As for `OCC(F)(F)c1cccc(COc2ccc(-c3ccn[nH]3)nc2)c1` [Example 60-2, 2,2-Difluoro-2-[3-[[6-(1H-pyrazol-5-yl)-3-pyridinyl]oxymethyl]phenyl]ethanol], the IC50 in assay [1] (setting [3]) is 130 nM; in assay [2] (setting [4]), 29 nM.
For `O=C(O)C1(CCCCOc2ccc(-c3ccn[nH]3)nc2)CCCCC1` [Example 1-35], in that order: 2200 nM and 84 nM.
For the compound `O=C(O)CCc1ccccc1COc1ccc(-c2ccn[nH]2)nc1` [Example 1-4], the IC50 in assay [1] (setting [3]) was found to be 16000 nM; in assay [2] (setting [4]), 110 nM.
In the case of `O=C(O)C1CC1c1cc(F)cc(CCOc2ccc(-c3ccn[nH]3)nc2)c1` (single isomer, unassigned) [Example 74-11], the IC50 in assay [1] (setting [5]) came out at 1200 nM; in assay [2] (setting [6]), 78 nM.
